Patent US8530407B2, “Multi-component antioxidant compounds, pharmaceutical compositions containing same and their use for reducing or preventing oxidative stress” (Yissum Research Development Company of the Hebrew …, priority 2000, dated 2013)

Key:
[1] = test system: reactive oxygen species (ROS) in DHER14 cells; assay: Inhibition of ROS production, fluorescent dye DHDCF; type: cell-based
Protocol: FIG. 3 represents cellular ROS levels as determined using a fluorescence assay in the presence of CB, NOXi and NAC antioxidants.
The concentration of reactive oxygen species (ROS) in DHER14 cells following administration of antioxidants was determined using the ROS sensitive fluorescent dye DHDCF (fluoresceine derivative). […] The efficacy of CB in reducing ROS was about ˜50 fold better then these two known antioxidants.

[2] = test system: JNK (c-Jun NH2-terminal kinase); details: DHER14 cells exposed to cisplatin (CDDP, 30 μM)
Protocol: (§1) In order to show the efficacy of CB against a stimulant that activates oxidative stress, an inhibition assay of both JNK (c-Jun NH2-terminal kinase) and p38 enzymes in tissue culture was performed.
(§2) NIH3T3 cells overexpressing EGF receptor (DHER14 cells) (55) were exposed to cisplatin (CDDP, 30 μM) which activates specific enzymes involved in apoptosis including JNK and p38.
(§3) Two known antioxidants were used as positive controls, NOXi (at 300 and 1000 μM) and NAC (NAC) (at 1000 μM).

[3] = test system: p38; details: DHER14 cells exposed to cisplatin (CDDP, 30 μM)
Protocol: as §1, §2, §3

[4] = 20 μM, detected by specific antibodies

Compound	efficiency in reducing ROS compared with CB at 20 μM ([1]; 1000 μM)	efficacy against JNK phosphorylation compared with CB at 20 μM ([2]; 1 mM)	efficacy against p38 phosphorylation compared with CB at 20 μM ([3]; 1 mM)	ROS level ([1]; 20 μM)	efficacy in reducing ROS relative to NOXi and NAC ([1]; CB 20 μM versus 1000 μM NAC or 1000 μM NOXi)	phosphorylated JNK [2, 4]	phosphorylated form of JNK ([2]; increasing concentrations)	phosphorylated p38 [3, 4]	phosphorylated form of p38 ([3]; increasing concentrations)
CC(=O)N[C@@H](CS)C(=O)O [NAC, N-acetyl cysteine, reference compound]	as efficient as	similar	similar	–	–	–	–	–	–
N-Acetyl Cysteine-Glycine-Proline-Cysteine-Amid [CB]	–	–	–	reduction of ROS below normal levels was prominent	~50 fold	not detected at all	dramatic reduction	not detected at all	dramatic reduction
